Experiments:
[1] = tested on: LPS-stimulated RAW 267.4 cells; test: TNF secretion from LPS-stimulated RAW macrophages (ELISA); type: cell-based; settings: 0.1 μg/ml LPS
Procedure: After 16 h, cell culture supernatants were collected for determination of TNF concentration by enzyme-linked immunosorbent assay (R & D Systems).

[2] = tested on: leukocyte recruitment into air pouch; test: Air pouch model of acute inflammation (carrageenan); type: in vivo, mice; settings: 4 mg/kg i.p. 15 min before 1% carrageenan, exudate after five hours
Procedure: Air pouches were produced according to standard procedures (Garcia-Ramallo et al., 2002) using C57bk6 mice (wild-type) or strain-matched mice lacking both copies of the MIF gene (MIF−/−) by injecting sterile air s.c. on day 0 (6 ml) and day 3 (3 ml). […] 15 min. later the animals were challenged by injecting 1 ml 1% carrageenan (in PBS) into the air pouch cavity. Five hours after carrageenan injection the animals were sacrificed, the pouches washed with PBS, exudates collected, and the total number of infiltrating cells quantitated.

[3] = tested on: cecal ligation and puncture (CLP) model of sepsis; test: Cecal ligation and puncture (CLP) model of sepsis; type: in vivo, mice
Procedure: In anesthetized male Balb/C mice (ketamine 100 mg/kg and xylazine 8 mg/kg administered intramuscularly), abdominal access was gained via a midline incision. The cecum was isolated and ligated with a 6-0 silk ligature below the ileocecal valve, and the cecum punctured once with a 22 G needle, stool (approximately 1 mm^3) extruded from the hole, and the cecum placed back into the abdominal cavity. The abdomen was closed with two layers of 6-0 Ethilon sutures. Antibiotics were administered immediately after CLP (Premaxin 0.5 mg/kg, subcutaneously, in a total volume of 0.5 ml/mouse) and a single dose of resuscitative fluid (normal saline solution) was administered subcutaneously (20 ml/kg-body weight) immediately after CLP. […] Additionally, two injections were given on day 2 and day 3.
The cecal ligation and puncture experiment was repeated in a second group of animals. The experimental procedure was identical to that used in the preceding example.

[4] = cited from earlier work

| Structure (SMILES) | IC50 ([1]; RAW267.4, 30 minutes preincubation, supernatants after 16 h, read-out: IC50, inhibition of the release of TNFα) [nM] | leukocyte recruitment (number of infiltrating cells), wild-type mice ([2]; C57bk6 wild-type, p<0.04 relative to vehicle) | leukocyte recruitment (number of infiltrating cells), MIF knockout mice ([2]; MIF−/− mice, n.s.) | survival ([3]; male Balb/C mice, 4 mg/kg i.p. 24 hours after CLP, further injections on day 2 and day 3, n=10, vehicle 2/10) | survival, repeat experiment in a second group of animals ([3]; procedure identical to the first CLP experiment, FIG. 4) | free (unbound) hormone as percentage of the total hormone in plasma [4] | inhibitory effect on TNF release compared with ISO-1 ([1]; 0.01-50 μM, 16 h) |
| --- | --- | --- | --- | --- | --- | --- | --- |
| N[C@H](Cc1cc(I)c(Oc2cc(I)c(O)c(I)c2)c(I)c1)C(=O)O [D-T4, dextrothyroxine] | 1000 | inhibits leukocyte recruitment | not in MIF knockout animals | 6/10 | dramatically increases survival |  |  |
| N[C@@H](Cc1cc(I)c(Oc2cc(I)c(O)c(I)c2)c(I)c1)C(=O)O [L-T4, L-thyroxine] |  |  |  |  |  | about 0.03% | more potent than ISO-1 |

— patent US20110136911A1 (The Feinstein Institute for Medical Research, priority 2007, published 2011)
